Experimental data: PubChem BioAssay AID1996
Values after ≈ are worked out from the molar mass of the structure shown.

Settings: buffer; pH 7.4; 200.0 µM

Structure (SMILES) | solubility kinetic [µg/mL]
Cc1ccc(C)c(CSCc2nc3ccccc3[nH]2)c1 | 20.6 (≈ 72.9 µM)
CC1(/[N+]([O-])=C/c2ccc(F)cc2)CCCCC1=O (stereo unspecified) | 28.3 (≈ 114 µM)
S=C(Nc1ccccn1)NC1CCCCC1 | 5.7 (≈ 24.2 µM)
COc1ccccc1OCC(O)CN1CCOCC1 (stereo unspecified) | 37.4 (≈ 140 µM)
O=C(COC(=O)Cc1ccc(S(=O)(=O)N2CCOCC2)s1)Nc1ccc(OC(F)F)cc1 | 63.7 (≈ 130 µM)
CCN=C1SC(C(=O)Nc2cccc(Cl)c2)CC(=O)N1CC (stereo unspecified) | 2.6 (≈ 7.65 µM)
Cc1c(C(=O)N2CCOCC2)sc(NC(=O)C(C)C)c1C#N | > 48.2
CC(O)c1cccc(N=Cc2ccc3ccccc3c2O)c1 (stereo unspecified) | 7.5 (≈ 25.7 µM)
Cc1cc(/C=C2\SC(=S)NC2=O)c(C)[nH]1 | > 35.7
O=C(O)c1ccccc1Nc1ccc([N+](=O)[O-])cc1C(=O)O | > 45.3
O=Cc1ccc(OCc2cn3ccccc3n2)cc1 | > 37.8
N#Cc1ccccc1/C=C/C(=O)N1CCOCC1 | > 36.3
COc1ccc(OC)c(S(=O)(=O)N2CCNCC2)c1 | 38.1 (≈ 133 µM)
COc1ccc(CNC(=O)C(NC(C)=O)C(C)C)cc1OC (stereo unspecified) | > 46.3
O=C(COC(=O)c1ccc2ncsc2c1)Nc1ccc(OC(F)(F)F)cc1 | 4.4 (≈ 11.1 µM)
CN(C)C(CNC(=O)c1c(F)cccc1Cl)c1ccco1 (stereo unspecified) | > 46.6
O=C(COC(=O)Cc1c(F)cccc1Cl)Nc1ccc2[nH]c(=O)[nH]c2c1 | > 56.7
COc1cccc(CNC(=O)COC(=O)c2nn(C)c(=O)c3ccccc23)c1 | > 57.2
Cc1ccc(-c2nc(=O)[nH]c3ccc(Br)cc23)cc1 | 6.7 (≈ 21.3 µM)
O=C(O)CNC(=O)/C(=C\c1ccco1)NC(=O)c1ccco1 | > 45.6
COc1cc(CN2CC=C(c3ccc(F)cc3)CC2)cc(OC)c1 | 10.4 (≈ 31.8 µM)
Cc1cccc(NC(=O)c2cccc(C(=O)Nc3cccc(C)c3C)n2)c1C | 1.1 (≈ 2.95 µM)

Structure (SMILES) | solubility kinetic [µg/mL]
COC(=O)C1=C2SCC(=O)N2C(N)=C(C#N)C1 | > 37.7
COC(=O)c1ccc(C)c(NC(=O)Cn2c(C)csc2=O)c1 | > 48.1
CC(C)C(OC(=O)/C=C/c1ccc2c(c1)OCO2)C(=O)NC(N)=O (stereo unspecified) | 6.6 (≈ 19.7 µM)
Cc1ccc(S(=O)(=O)Cc2ccc([N+](=O)[O-])cc2)cc1 | < 0.6
N#Cc1ccc(-c2cn3c(n2)SCC3)cc1 | > 34.1
CCOC(=O)CSc1nc2ccccc2c(=O)n1CC(C)C | 4.2 (≈ 13.1 µM)
CSc1ncccc1C(=O)OCc1c(F)cccc1Cl | 1.1 (≈ 3.53 µM)
O=C(Nc1cccc(Cl)c1Cl)C1CCCO1 (stereo unspecified) | 26.7 (≈ 103 µM)
CS(=O)(=O)c1ccc(Cl)c(NC(=O)Nc2ccccc2)c1 | 5.1 (≈ 15.7 µM)
CCC1CCCCN1CC(C)(C)NS(=O)(=O)c1ccccc1 (stereo unspecified) | 39.2 (≈ 121 µM)
COc1cc(CCC(=O)OCC(=O)NCCc2ccc(S(N)(=O)=O)cc2)cc(OC)c1OC | > 72.1
O=C(O)CCC(CNS(=O)(=O)c1ccccc1)C(F)(F)F (stereo unspecified) | > 48.8
CSc1ccccc1NC(=S)NC1CCCC1 | > 40
COCCNCC(=O)Nc1ccc(OC(F)(F)F)cc1.Cl | 48.8
Cc1nn(CC(=O)NC(C)c2ccccc2)c(C)c1[N+](=O)[O-] (stereo unspecified) | > 45.3
O=C(NC(=S)NNC(=O)c1cccs1)c1ccccc1 | > 45.8
Cc1ccc(S(=O)(=O)N2CCN(c3ncnc4scc(-c5ccccc5)c34)CC2)cc1 | 0.9 (≈ 2 µM)
CCOc1ccc(Br)cc1S(=O)(=O)N1CCSC1 | 7.2 (≈ 20.4 µM)
N/C(=N\OC(=O)c1cc([N+](=O)[O-])ccc1Cl)c1ccccn1 | 11.2 (≈ 34.9 µM)
c1cc(CNCCc2ccc3c(c2)OCO3)ccn1 | 28.5 (≈ 111 µM)
c1ccc2c(Nc3nc(-c4ccncc4)nc4ccccc34)cccc2c1 | < 0.2
CC(C)C1Oc2ccccc2N(CC(=O)N2CCOCC2)C1=O (stereo unspecified) | > 47.8

Structure (SMILES) | solubility kinetic [µg/mL]
Cc1ccc(C(=O)Nc2ccc3c(c2)C(=O)N(CC2CCCO2)C3=O)cc1 (stereo unspecified) | 1 (≈ 2.74 µM)
O=C(NC1CC1)c1ccc(CSCc2ccccc2Cl)o1 | > 48.3
O=C(Cc1ncc(C(F)(F)F)cc1Cl)NC1CC1 | > 41.8
COc1cccc(/C(N)=N/OC(=O)Cc2ccccc2[N+](=O)[O-])c1 | 31.7 (≈ 96.3 µM)
Cc1ccc(C(=O)O/N=C(\N)c2ccccn2)c(C)c1 | > 40.4
CN(C)Cc1ccccc1CCc1ccccc1.Cl | 23.9
CCC(=NCc1ccco1)c1c(O)n(-c2ccccc2C)c(=O)[nH]c1=O | > 53
COC(=O)c1ccccc1NC(=S)N1CCN(c2ccccc2)CC1 | 13.4 (≈ 37.7 µM)
O=C1CCN(S(=O)(=O)c2ccc(Br)cc2)CCN1 | 39.1 (≈ 117 µM)
Cn1cc(Cl)cc(C(=O)Nc2ccccc2)c1=O | 2 (≈ 7.61 µM)
Cc1cccc(N2N=C(C(=O)OCC(=O)c3ccccc3)CCC2=O)c1 | > 52.6
Cl.c1csc(CNCc2ccncc2)c1 | > 36.1
Cc1ccc(NC(=O)N(C)c2ccccc2)cc1 | > 36
CC(C)CCOc1cccc(OCC(=O)Nc2ccncc2)c1 | 27.7 (≈ 88.1 µM)
O=C(CCc1ccccc1)N/N=C/c1cccc(O)c1 | > 40.2
COc1ccc(-c2nc(=S)n3ccsc3n2)cc1OC | 4.4 (≈ 14.4 µM)
CC(Sc1nc(N)cc(=O)[nH]1)C(=O)N1CCOCC1 (stereo unspecified) | > 42.6
Cc1ccccc1C(=O)NC(=S)N(C)C1CCCCC1 | 41.4 (≈ 143 µM)
O=C(Nc1ccccc1)Nc1scc2c1c(=O)oc1ccccc12 | < 0.4
COC(=O)c1ccc(S(=O)(=O)N2CCC(C(N)=O)CC2)n1C | > 49.4
Cc1ccc(C(=O)N(C)CC(=O)Nc2cccc(C)c2C)o1 | > 45.1
Cn1c(O)c(/C=N/NC(=O)c2ccncc2)c(=O)[nH]c1=S | > 45.8

Structure (SMILES) | solubility kinetic [µg/mL]
COc1ccc(COC(=O)CCc2c[nH]c3ccccc23)cc1F | 7.7 (≈ 23.5 µM)
COc1ccc(N2CCN(CC(=O)NCc3ccccc3)CC2)cc1 | > 50.9
NC(=O)c1ccccc1NC(=O)CSC1=NCCS1 | > 44.3
COc1cccc(N2CCN(C(=S)Nc3ccc(C)cc3C)CC2)c1 | 0.6 (≈ 1.69 µM)
Nc1nonc1OCCCCOc1nonc1N | 21.1 (≈ 82.4 µM)
O=C(NCCNc1ccccc1[N+](=O)[O-])c1cc(F)c(F)cc1Cl | 1.2 (≈ 3.37 µM)
COc1cc(C2C(C#N)=C(SC)NC3=C2C(=O)CCC3)ccc1O (stereo unspecified) | > 51.4
Cc1cc(NC(=O)CSc2nnc(-c3ccccc3F)n2N)no1 | > 52.3
COc1ccc(CCNC(=O)CCc2nc3ccccc3[nH]2)cc1OC | > 53
CC(Oc1ccccc1)C(=O)OCC(=O)Nc1ccc2c(c1)OCO2 (stereo unspecified) | > 51.5
Cc1ccc(C)n1Cc1ccccc1Cl | 1.2 (≈ 5.46 µM)
CC(=O)Oc1ccccc1/C=C/c1nc2ccccc2c(=O)o1 | 27.2 (≈ 88.5 µM)
N/C(=N\OC(=O)c1ccc(OCC(F)(F)F)nc1)c1ccc(Cl)cc1 | 1.2 (≈ 3.21 µM)
COc1ccc2nc(SC)cc(C)c2c1 | 3.7 (≈ 16.9 µM)
O=C1CN=C(c2ccccc2)c2ccccc2N1 | 27.2 (≈ 115 µM)
CCOC(=O)c1ccc(CN2Cc3ccccc3C2=O)cc1 | > 44.3
O=[N+]([O-])c1ccc(Cc2ccccn2)cc1 | > 32.1
COc1ccc(NC(=S)/N=C(\N)Nc2nc(C)c3ccccc3n2)cc1 | 0.7 (≈ 1.91 µM)
COc1cccc(NC(=O)C(C)SCc2ccccc2)c1 (stereo unspecified) | > 45.2
Cc1ccc(C)c(NC(=O)CN2C(=O)NC(CCc3ccccc3)C2=O)c1 (stereo unspecified) | 2.5 (≈ 6.84 µM)
